Patent US20240246960A1 (adMare Therapeutics Society, priority 2021, published 2024)
Read-outs that look alike come from different tables or passages of the source.

Legend:
DNA-PK = target: T1, DNA-PK (Homo sapiens, UniProt P78527); test: DNA-PK Assay for Biochemical Enzymatic Inhibition (ADP Glo Kinase assay)
T1 construct: purchased Invitrogen PR9107A
Method in brief: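 Human DNA-PK (25 ng) preincubated 15 min with compounds (ten three-fold dilutions) in HEPES pH 7.5, MgCl2, KCl, calf thymus DNA buffer, then substrate 434.4 μM and ATP 64.4 μM (final) for 60 min at room temperature. ADP-Glo luminescence; percent inhibition fitted by four-parameter regression for IC50.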

[1] = target: T2, DNA-PK phosphorylation at Serine 2056 (Homo sapiens, UniProt P78527); test: Cellular Assay for Inhibition of DNA-PK Phosphorylation at Serine 2056 (FaDu cells, neocarzinostatin, sandwich ELISA); format: cell-based
T2 construct: host or cells: FaDu
Method in brief: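 Readout was pSer2056 and total DNA-PK, measured by sandwich ELISA on protein-normalized lysates. Prior to lysis, compound was applied to FaDu cells for 1 h (0.3% DMSO), followed by 2 h of 1 μg/mL neocarzinostatin. IC50 values were fitted from log concentration versus % inhibition normalized to DMSO and NCS controls.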

[2] = target: T3, pDNA-PK ser2056 induction in FaDU spheroids (Homo sapiens, UniProt P78527); test: Multicellular tumour spheroid + radiation, pDNA-PK inhibition, FaDU; format: cell-based; details: 20 Gy
T3 construct: host or cells: FaDu
Method: Multicellular tumour spheroids determination of compound inhibition of pDNA-PK induction following radiation. Tumour spheroids were grown to approximately 0.5 mm in diameter and irradiated with 20 Gy in combination with inhibitor test compounds to determine their potency. Inhibitor concentration for 50% reduction in pDNA-PK induction (IC50) was determined via immunohistochemical staining in spheroid cryosections taken 2 hours following radiation. For cell survival endpoint 8 Gy radiation was used and 3 hours following radiation spheroids were dissociated, counted and plated for colony forming endpoint.
Spheroid+radiation pDNA-PK. Radiation: 20 Gy. Drug: serial dilution 5 or 10 μM down to 3.5 nM (11 wells). Spheroids: 3-6 spheroids per well (300-500 μm diameter). 20% O2 and 5% CO2. 96 well plate format. Endpoint: fluorescent immunostain pDNA-PK ser2056 and image on microscope. Analysis: determine EC50 concentrations that decreases pDNA-PK induction […] after irradiation.
Multicellular tumour spheroids were used to determine potency of test compounds in a 3D tissue environment using inhibition of pDNA-PK induction following radiation or cell survival as the endpoint. For the pDNA-PK endpoint HCT116 or FaDU tumour spheroids were grown to approximately 0.5 mm in diameter and irradiated with 20 Gy in combination with inhibitor test compounds to determine their potency. Experiments were carried out in 96 well plates containing 0.7 mls of MEM media containing 10% FBS and 10 mM glucose under 20% O2 & 5% CO2 at 37° C. Following dilution of compounds 1:1000 from DMSO stocks, compounds were serially diluted from 10 μM down to 3.5 nM and 5-10 spheroids added. 96 well plates were constantly stirred to avoid spheroids settling during the course of the experiment. The inhibitor concentration for 50% reduction in pDNA-PK induction (EC50) was determined via immunohistochemical staining in spheroid cryosections taken 2 hours following radiation using anti-pDNA-PK (ser 2056) and fixed immediately in formalin following sectioning. For cell survival endpoint 8 Gy radiation was used and, 3 hours following radiation, spheroids were dissociated, counted and plated for colony forming endpoint. Data presented in the table compound potency as EC50 [μM].

[3] = target: T4, pDNA-PK ser2056 induction in HCT116 spheroids (Homo sapiens, UniProt P78527); test: Multicellular tumour spheroid + radiation, pDNA-PK inhibition, HCT116; format: cell-based; details: 20 Gy
T4 construct: endogenous in cells; host or cells: HCT116 multicellular tumour spheroids
Method in brief: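 EC50 (μM) is concentration halving radiation-induced pDNA-PK ser2056, scored by fluorescent immunostaining of cryosections 2 h after 20 Gy. HCT116 tumour spheroids (~0.5 mm, stirred, 20% O2/5% CO2, 37 °C) exposed to serial dilutions from 10 or 5 μM to 3.5 nM starting 1 h before irradiation.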

[4] = Microsomal stability assay, mouse liver microsomes; details: for microsomal CLint at 0.1 uM: male, CD-1, mouse, liver microsomes, pH 7.4, Microsomal Stability Mouse Clint
Method: Mouse liver microsomes were obtained from a pool of 250 or more male CD-1 mice. […] Final microsomal concentration was 0.1 mg/mL and test compound concentration was 0.1 uM with a maximum of 0.01% DMSO. The test compound was pre-incubated with pooled liver microsomes in phosphate buffer (pH 7.4) for 5 min in a 37° C. shaking water bath. The reaction was initiated by adding NADPH-generating system and incubated for 0, 15, 30, 45, and 60 min. The reaction was stopped by transferring the incubation mixture to acetonitrile/methanol. Samples were then mixed and centrifuged. Supernatants were used for HPLC-MS/MS analysis. The HPLC system consisted of a binary LC pump with autosampler, a C-18 column, and a gradient. Peak areas corresponding to the test compound were recorded. The compound remaining was calculated by comparing the peak area at each time point to time zero. The half-life was calculated from the slope of the initial linear range of the logarithmic curve of compound remaining (%) vs. time, assuming first order kinetics. In addition, the intrinsic clearance (Clint) was calculated from the half-life.

[5] = Microsomal stability assay, human liver microsomes; format: in vitro ADME; details: for microsomal CLint at 0.1 uM: both sexes, human, liver microsomes
Method: Samples were then mixed and centrifuged. Supernatants were used for HPLC-MS/MS analysis. […] Peak areas corresponding to the test compound were recorded.

[6] = Hepatocyte stability assay, mouse hepatocytes; format: in vitro ADME; details: male, CD-1, mouse, cryopreserved hepatocytes, pH 7.3, Example 11
Method: (§1) Cryopreserved mouse hepatocytes were obtained from a pool of 10 or more male CD-1 mice. Cryopreserved human hepatocytes were obtained from a pool of 10 or more donors of mixed gender. Final hepatocyte density was 0.7 million viable cells per mL and test compound concentration was 1 uM with a maximum of 0.01% DMSO. Cryopreserved hepatocytes were thawed, washed, and resuspended in Krebs-Heinslet buffer (pH 7.3). The reaction was initiated by adding the test compound into cell suspension and incubated for 0, […], 1, 1.5, and 2 h, respectively, at 37° C./5% CO2. The reaction was stopped by adding acetonitrile into the incubation mixture. Samples were then mixed, transferred completely to another 96-well plate, and centrifuged. Supernatants were used for HPLC-MS/MS analysis. […] Peak areas corresponding to the test compound were recorded.

[7] = Hepatocyte stability assay, human hepatocytes; format: in vitro ADME; details: both sexes, human, cryopreserved hepatocytes, pH 7.3; Example 11
Method: as §1

[8] = Example 8, spheroid, read-out: Cell line: FaDU Immunohistochemical endpoint pDNA-PK inhibition EC50
[9] = Example 9 Study 2, 20% O2, read-out: Spheroid Cell line: FaDU Immunohistochemical endpoint pDNA-PK inhibition EC50
[10] = Example 7, spheroid, cell line HCT115 [sic], 20% O2, read-out: EC50 (pDNA-PK inhibition, immunohistochemical endpoint)
[11] = Example 8, spheroid, read-out: Cell line: HCT116 Immunohistochemical endpoint pDNA-PK inhibition EC50
[12] = Example 9 Study 2, 20% O2, read-out: Spheroid Cell line: HCT116 Immunohistochemical endpoint pDNA-PK inhibition EC50
[13] = 0.1 mg/mL microsomes, 0.1 uM compound
[14] = pH 7.4, 0.1 mg/mL microsomes, 0.1 uM compound

| IC50 (DNA-PK; Table 1) | IC50 ([1]; Table 1) | EC50 [2, 8] | EC50 [2, 9] | EC50 [3, 10] | EC50 [3, 11] | EC50 [3, 12] | Microsomal Stability (mouse) % rem. 60 min [4] | microsomal CLint at 0.1 uM [4, 13] | Microsomal Stability (human) % rem. 60 min [5] | microsomal CLint at 0.1 uM [5, 14] | IC50 (DNA-PK; Table 2) | IC50 ([1]; Table 2) | hepatocyte CLint at 1 uM [6] | Microsomal Stability (human) % rem. 60 min ([5]; Example 11) | microsomal CLint at 0.1 uM ([5]; pH 7.4, Example 11) | Microsomal Stability (mouse) % rem. 60 min ([4]; Example 11) | microsomal CLint at 0.1 uM ([4]; Example 11) | hepatocyte CLint at 1 uM [7] | SMILES |
| --- | --- | --- | --- | --- | --- | --- | --- | --- | --- | --- | --- | --- | --- | --- | --- | --- | --- | --- | --- |
| < 0.5 nM | < 100 nM | 500 to 1000 nM | 500 to 1000 nM | 1000 to 10000 nM | 1000 to 10000 nM | 1000 to 10000 nM | E (% remaining = 0-25%) | > 116 µL/min/mg | – | – | – | – | – | – | – | – | – | – | FC(F)(F)c1cn([C@H]2CC[C@@H](Oc3nc(N4CCOCC4)cc4ncccc34)CC2)cn1 [Compound 17k, 4-(5-(((1s,4s)-4-(4-(trifluoromethyl)-1H-imidazol-1-yl)cyclohexyl)oxy)-1,6-naphthyridin-7-yl)morpholine] |
| < 0.5 nM | 100 to 1000 nM | 10 to 500 nM | 10 to 500 nM | 10 to 500 nM | 10 to 500 nM | 10 to 500 nM | E (% remaining = 0-25%) | > 116 µL/min/mg | – | – | – | – | – | – | – | – | – | – | c1cnc2cc(N3CCOCC3)nc(O[C@H]3CC[C@@H](Nc4cnccn4)CC3)c2c1 [Compound 23, N-((1s,4s)-4-((7-Morpholino-1,6-naphthyridin-5-yl)oxy)cyclohexyl)pyrazin-2-amine] |
| 0.5 to 1 nM | 100 to 1000 nM | 1000 to 10000 nM | 1000 to 10000 nM | 1000 to 10000 nM | 1000 to 10000 nM | 1000 to 10000 nM | F (% remaining = 25-50%) | > 116 µL/min/mg | – | – | – | – | – | – | – | – | – | – | c1ccc(N[C@H]2CC[C@@H](Oc3nc(N4CCOCC4)cc4ncccc34)CC2)nc1 [Compound 25, N-((1s,4s)-4-((7-morpholino-1,6-naphthyridin-5-yl)oxy)cyclohexyl)pyridin-2-amine] |
| 0.5 to 1 nM | 100 to 1000 nM | 10 to 500 nM | 10 to 500 nM | 1000 to 10000 nM | 1000 to 10000 nM | 1000 to 10000 nM | E (% remaining = 0-25%) | > 116 µL/min/mg | – | – | – | – | – | – | – | – | – | – | c1cnc2cc(N3CCOCC3)nc(O[C@H]3CC[C@@H](Nc4ccncc4)CC3)c2c1 [Compound 27, N-((1s,4s)-4-((7-morpholino-1,6-naphthyridin-5-yl)oxy)cyclohexyl)pyridin-4-amine] |
| < 0.5 nM | < 100 nM | 500 to 1000 nM | 500 to 1000 nM | 1000 to 10000 nM | 1000 to 10000 nM | 1000 to 10000 nM | E (% remaining = 0-25%) | > 116 µL/min/mg | – | – | – | – | – | – | – | – | – | – | O=C(N[C@H]1CC[C@@H](Oc2nc(N3CCOCC3)cc3ncccc23)CC1)c1ccc(F)cc1 [Compound 111, 4-Fluoro-N-((1s,4s)-4-((7-morpholino-1,6-naphthyridin-5-yl)oxy)cyclohexyl)benzamide] |
| < 0.5 nM | 100 to 1000 nM | 10 to 500 nM | 10 to 500 nM | 10 to 500 nM | 10 to 500 nM | 10 to 500 nM | E (% remaining = 0-25%) | > 116 µL/min/mg | – | – | – | – | – | – | – | – | – | – | COc1ccc(C(=O)N[C@H]2CC[C@@H](Oc3nc(N4CCOCC4)cc4ncccc34)CC2)cc1 [Compound 112, 4-Methoxy-N-((1s,4s)-4-((7-morpholino-1,6-naphthyridin-5-yl)oxy)cyclohexyl)benzamide] |
| < 0.5 nM | 100 to 1000 nM | – | – | 500 to 1000 nM | – | 500 to 1000 nM | G (% remaining = 50-75%) | < 116 µL/min/mg | F (% remaining = 25-50%) | > 116 µL/min/mg | – | – | – | – | – | – | – | – | O=C(N[C@H]1CC[C@@H](Oc2nc(N3CCOCC3)cc3ncccc23)CC1)c1cncs1 [Compound 137, N-((1s,4s)-4-((7-morpholino-1,6-naphthyridin-5-yl)oxy)cyclohexyl)thiazole-5-carboxamide] |
| 0.5 to 1 nM | 1000 to 10000 nM | – | – | 1000 to 10000 nM | – | 1000 to 10000 nM | G (% remaining = 50-75%) | < 116 µL/min/mg | G (% remaining = 50-75%) | < 116 µL/min/mg | – | – | – | – | – | – | – | – | CS(=O)(=O)Nc1cnc2cc(N3CCOCC3)nc(O[C@H]3CC[C@@H](NC(=O)c4ncccn4)CC3)c2c1 [Compound 177, N-((1s,4s)-4-((3-(methylsulfonamido)-7-morpholino-1,6-naphthyridin-5-yl)oxy)cyclohexyl)pyrimidine-2-carboxamide] |
| – | – | – | – | – | – | – | – | – | – | – | < 0.5 nM | < 100 nM | > 8.2 µL/min/1e6 cells | G (% remaining = 50-75%) | < 116 µL/min/mg | G (% remaining = 50-75%) | < 116 µL/min/mg | – | CS(=O)(=O)Nc1cnc2cc(N3CCOCC3)nc(O[C@H]3CC[C@@H](Nc4ncccn4)CC3)c2c1 [LFA006, N-[7-Morpholino-5-[4-(pyrimidin-2-ylamino)cyclohexoxy]-1,6-naphthyridin-3-yl]methanesulfonamide] |
| – | – | – | – | – | – | – | – | – | – | – | 0.5 to 1 nM | < 100 nM | > 8.2 µL/min/1e6 cells | H (% remaining = 75-100%) | < 116 µL/min/mg | G (% remaining = 50-75%) | < 116 µL/min/mg | – | CS(=O)(=O)Nc1cnc2cc(N3CCOCC3)nc(O[C@H]3CC[C@@H](Nc4ncc(C(F)(F)F)cn4)CC3)c2c1 [LFA022, N-[7-Morpholino-5-[4-[[5-(trifluoromethyl)pyrimidin-2-yl]amino]cyclohexoxy]-1,6-naphthyridin-3-yl]methanesulfonamide] |
| – | – | – | – | – | – | – | – | – | – | – | < 0.5 nM | < 100 nM | > 8.2 µL/min/1e6 cells | H (% remaining = 75-100%) | < 116 µL/min/mg | G (% remaining = 50-75%) | < 116 µL/min/mg | < 8.2 µL/min/1e6 cells | CS(=O)(=O)Nc1cnc2cc(N3CCOCC3)nc(O[C@H]3CC[C@@H](Nc4ncc(C#N)cn4)CC3)c2c1 [LFA025, N-[5-[4-[(5-Cyanopyrimidin-2-yl)amino]cyclohexoxy]-7-morpholino-1,6-naphthyridin-3-yl]methanesulfonamide] |
